Experimental data published in PubChem BioAssay (NCI).
Several values for one entry are separate records, joined by “and”; a condition that tells them apart may be missing. Identical values can stand only once.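 Step 1: Grow cells in 96-well plates. Step 2: Expose to compound for 48 hours at 5 concentrations. Step 3: Interpolate endpoints linearly; if unreached, use highest concentration. Here, GI50 denotes the concentration required for 50% inhibition of growth. TGI: concentration producing complete growth inhibition.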

Columns and labels:
Test in all cases: DTP human tumour cell line panel, 48 h
A549 NSCLC = test system: A549 NSCLC
HCT-116 colon = test system: HCT-116 colon
HL-60(TB) leukemia = test system: HL-60(TB) leukemia
HS 578T breast = test system: HS 578T breast
LOX IMVI melanoma = test system: LOX IMVI melanoma
MCF7 breast = test system: MCF7 breast
MDA-MB-435 = test system: MDA-MB-435
MOLT-4 leukemia = test system: MOLT-4 leukemia
NCI-H226 lung = test system: NCI-H226 lung
SF-539 CNS = test system: SF-539 CNS

| SMILES | GI50 (A549 NSCLC) | TGI (A549 NSCLC) | GI50 (HCT-116 colon) | TGI (HCT-116 colon) | GI50 (HL-60(TB) leukemia) | TGI (HL-60(TB) leukemia) | GI50 (HS 578T breast) | TGI (HS 578T breast) | GI50 (LOX IMVI melanoma) | TGI (LOX IMVI melanoma) | GI50 (MCF7 breast) | TGI (MCF7 breast) | GI50 (MDA-MB-435) | TGI (MDA-MB-435) | GI50 (MOLT-4 leukemia) | TGI (MOLT-4 leukemia) | GI50 (NCI-H226 lung) | TGI (NCI-H226 lung) | GI50 (SF-539 CNS) | TGI (SF-539 CNS) |
| --- | --- | --- | --- | --- | --- | --- | --- | --- | --- | --- | --- | --- | --- | --- | --- | --- | --- | --- | --- | --- |
| CC[C@H]1OC(=O)[C@H](C)[C@@H](O[C@H]2C[C@@](C)(OC)[C@@H](O)[C@H](C)O2)[C@H](C)[C@@H](O[C@@H]2O[C@H](C)C[C@H](N(C)C)[C@H]2O)[C@](C)(OC)C/C(C)=C2/O[C@@]1(C)C=C2C | 1.63 µM | 3.42 µM | 1.93 µM | 4.36 µM | 1.86 µM | 4.16 µM | 1.68 µM | 3.62 µM | 1.61 µM | 3.08 µM | 1.82 µM | 3.63 µM | 1.67 µM | 3.15 µM | 1.96 µM | 4.49 µM | 2.12 µM | 4.42 µM | 1.62 µM | 2.99 µM |
| C#C[C@]1(O)CC[C@H]2[C@@H]3CC=C4c5nc(N)sc5CC[C@]4(C)[C@H]3CC[C@@]21C | 4.15 µM | 24.8 µM | 3.91 µM | 19.6 µM | 2.65 µM | 7.04 µM | 2.55 µM | 7.94 µM | 1.92 µM | 4.04 µM | 3.54 µM | 10.1 µM | 2.22 µM | 7.2 µM | 2.18 µM | 6.24 µM | 2.76 µM | 7.56 µM | 1.58 µM | 3.56 µM |
| CCOC(=O)c1c(CN2CCN(C)CC2)nc2ccc(Cl)cc2c1-c1ccccc1 | 14.1 µM | 28.5 µM | 6.51 µM | 19.1 µM | 2.2 µM | 6.22 µM | 4.69 µM | 23.1 µM | 4.52 µM | 16.1 µM | 4.15 µM | 16.6 µM | 2.71 µM | 7.87 µM | 2.92 µM | 12.9 µM | 15.6 µM | 34.9 µM | 8.72 µM | 21 µM |
| COc1ccccc1NC(=O)C1=C(C)NC(C)=C(C(=O)Nc2ccccc2OC)C1c1ccco1 | – | > 100 µM | – | 37.4 µM | – | 8.51 µM | – | 9 µM | – | > 100 µM | – | > 100 µM | – | 19.8 µM | – | 52.7 µM | – | 33.1 µM | – | 20.7 µM |
| O=CN1N=C(c2cccc(Nc3ccnc4cc(Cl)ccc34)c2)CC1c1ccc(Cl)cc1 (stereo not drawn) | 0.941 µM | > 100 µM | 0.597 µM | 5.29 µM | 1.1 µM | 3.81 µM | 1.97 µM | > 100 µM | 1.56 µM | 10.3 µM | 0.81 µM | > 100 µM | 0.293 µM | 24.9 µM | 1.92 µM | 80.3 µM | > 100 µM | > 100 µM | 3.78 µM | 69.5 µM |
| CCOc1ccc2cc(-c3nn(CC4CCNCC4)c4ncnc(N)c34)ccc2c1 | 20.3 µM | 46.2 µM | 13.4 µM | 29.3 µM | 14.7 µM | 32.6 µM | 10.2 µM | 43.4 µM | 26.8 µM | > 100 µM | 11.2 µM | 24.8 µM | 13.1 µM | 25.8 µM | 4.73 µM | 19.8 µM | 10 µM | 33.4 µM | 13.9 µM | 26.9 µM |
| O=C(O)CCCCC1CCSS1 (stereo not drawn) | – | > 100 µM | – | > 100 µM | – | > 100 µM | – | > 100 µM | – | > 100 µM | – | > 100 µM | – | > 100 µM | – | > 100 µM | – | > 100 µM | – | > 100 µM |
| COc1ccccc1C(=O)N(Cc1ccccc1)c1ccc(Cl)c(C(=O)OC(C)C)c1 | – | > 100 µM | – | > 100 µM | – | 43.6 µM | – | > 100 µM | – | > 100 µM | – | > 100 µM | – | > 100 µM | – | 66.3 µM | – | 58 µM | – | > 100 µM |
| CN1CC[C@H](c2c(O)cc(O)c3c(=O)cc(-c4ccccc4Cl)oc23)[C@H](O)C1 | 0.0946 µM | > 10 µM | 0.0123 µM | > 10 µM | 0.0508 µM | > 2.49 µM | 0.0618 µM | 0.398 µM | 0.00602 µM | > 10 µM | 0.028 µM | > 10 µM | 0.0712 µM | 0.26 µM | 0.076 µM | > 10 µM | 0.0695 µM | 0.46 µM | 0.139 µM | 0.542 µM |
| COc1cc(-c2nn(-c3cccc(NC(=O)CCNc4ccc(N5CCOCC5)cc4)c3)cc2-c2ccncc2)ccc1Cl | 1.46 µM | 25.1 µM | 2.31 µM | > 100 µM | 3.71 µM | > 100 µM | 3.27 µM | > 100 µM | 2.6 µM | 13 µM | 2.47 µM | 11.5 µM | 2.41 µM | 7.28 µM | 1.6 µM | 6.98 µM | 2.89 µM | 27.8 µM | 2.91 µM | 19.4 µM |
| CC(=O)Oc1cc2cnc3c4cc(OC(C)=O)c(OC(C)=O)cc4ccc3c2cc1OC(C)=O | 3.69 µM | > 100 µM | 0.471 µM | 3.86 µM | 3.26 µM | 19.8 µM | 1.01 µM | 9.56 µM | 1.23 µM | > 100 µM | 0.638 µM | > 100 µM | 0.506 µM | > 100 µM | 0.812 µM | > 100 µM | 2.04 µM | 8.91 µM | 1.3 µM | 4.46 µM |
| COc1cccc(-c2nc3sccn3c2-c2ccnc(NCCCNS(=O)(=O)c3ccccc3)c2)c1 | 3.45 µM | > 100 µM | 3.32 µM | > 100 µM | 2.33 µM | 5.63 µM | 3.51 µM | > 100 µM | 3.12 µM | > 100 µM | 3.83 µM | > 100 µM | 3.53 µM | > 100 µM | 2.25 µM | 7.04 µM | 2.92 µM | > 100 µM | 5.43 µM | > 100 µM |
| CCCCCC[C@H]1C(=O)O[C@H](C)[C@H](NC(=O)c2cccc(NC=O)c2OC)C(=O)O[C@@H](C)[C@@H]1OC(=O)CCC (tested in a mixture with another compound) | 7.24 µM | 22.8 µM | 9.89 µM | 24.3 µM | 4.68 µM | 19.9 µM | 13.1 µM | 38.6 µM | 8.67 µM | 23.8 µM | 33.4 µM | > 100 µM | 9.6 µM | 27.9 µM | 5.64 µM | 26.6 µM | 14.7 µM | 39.4 µM | 15.5 µM | 33.3 µM |
| CC1OC(OC2C(O)C(O)C(O)C(O)C2O)C(N)CC1N=C(N)C(=O)O (stereo not drawn) | – | > 100 µM | – | > 100 µM | – | > 100 µM | – | > 100 µM | – | > 100 µM | – | > 100 µM | – | > 100 µM | – | > 100 µM | – | > 100 µM | – | > 100 µM |
| C=CC(=O)Nc1cc2c(Nc3ccc(F)c(Cl)c3)ncnc2cc1C#CC(C)(C)N1CCN(C)CC1 | 2.64 µM | – | 1.52 µM | 3.01 µM | 1.88 µM | 5.08 µM | 2.28 µM | 8.47 µM | 1.27 µM | 2.65 µM | 0.995 µM | 3.17 µM | 1.5 µM | 3.9 µM | 1.05 µM | 5.16 µM | 4.06 µM | 6.04 µM | 1.48 µM | 2.99 µM |
| NCCCN=c1ccc2c3c1c(O)c1c(O)ccc(=O)c1c3[nH]n2CCNCCO | 0.571 µM and 0.304 µM | 12.3 µM and 21.8 µM | 2.06 µM and 1.46 µM | 9.67 µM and 20.2 µM | 0.665 µM and 0.556 µM | 1.7 µM and 9.33 µM | 1.77 µM | 4.8 µM | 1.53 µM | 5.8 µM | 0.796 µM | 21.5 µM and 11.2 µM | – | 15.4 µM | 0.343 µM | 7.68 µM and 19.4 µM | 1.05 µM | 7.05 µM and 10.7 µM | 0.854 µM and 1.53 µM | 5.31 µM and 7.66 µM |
| C=C1C[C@@H]2O[C@H]3[C@H]4[C@@H](CC[C@@](C)(OC(=O)CCC)[C@H]42)[C@@H](C)C(=O)O[C@@]3(C)CC[C@H]1OO | 18.5 µM | 34.4 µM | 24.3 µM | 54.6 µM | 12.2 µM | 28.1 µM | > 100 µM | > 100 µM | 15.4 µM | 28.7 µM | 20.5 µM | 38.8 µM | 17 µM | 33.1 µM | 11 µM | 23 µM | 17 µM | 32.2 µM | 21 µM | 41.1 µM |
